Numbers after ± are expanded uncertainties.

Data set [1] is described as follows: Molar enthalpy of transition or fusion. Particulars: Crystal; DSC.
For data set [2] the following is noted: Crystal; DTA.

For `COc1cc(C(=O)O)cc(OC)c1O` [4-hydroxy-3,5-dimethoxybenzoic acid], the “Molar enthalpy of transition or fusion” value in data set [1] was 7.98 ± 0.359 kcal/mol. The Normal melting temperature in data set [2] stood at 212.7 ± 1.1 °C.

These data come from the NIST ThermoML archive (doi:10.1021/acs.jced.7b00333).
